This is an account of results in patent US6887896B1, “7-[(7-Alkoxy)-chrom-3-en-6-yl]-heptatrienoic acid and 7-[(3-alkoxy)-5,6-dihydronaphthalen-2-yl]-heptatrienoic acid derivatives having serum glucose reducing activity” (Allergan, Inc., priority 2003, dated 2005).

Structures are written as SMILES.

Test [1] addresses T1, RXRα (Homo sapiens, UniProt P19793).
T1 construct: expressed in transfected cells
T1 sequence (P19793 1-462): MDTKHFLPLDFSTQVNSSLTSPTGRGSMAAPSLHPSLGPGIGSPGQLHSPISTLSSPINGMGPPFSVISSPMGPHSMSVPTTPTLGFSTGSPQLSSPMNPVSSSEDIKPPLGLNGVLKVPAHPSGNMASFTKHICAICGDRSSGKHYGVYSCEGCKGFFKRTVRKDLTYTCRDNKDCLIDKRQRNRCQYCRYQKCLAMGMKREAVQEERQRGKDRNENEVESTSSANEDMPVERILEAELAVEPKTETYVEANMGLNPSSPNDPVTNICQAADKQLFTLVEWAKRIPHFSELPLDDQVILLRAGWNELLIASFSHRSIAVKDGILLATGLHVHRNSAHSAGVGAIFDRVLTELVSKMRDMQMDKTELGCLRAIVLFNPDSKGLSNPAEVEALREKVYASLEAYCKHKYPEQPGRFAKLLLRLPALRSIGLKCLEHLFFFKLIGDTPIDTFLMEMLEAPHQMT
The test can be described thus: ligand binding assay, RXRα. Conditions: read-out: RXR Bind Ki α. From the text:
(§1) Specifically, one such assay is a chimeric receptor transactivation assay which tests for agonist-like activity in the R RAPE and RAR7 receptor subtypes, and which is based on work published by Feigner, P. L. and Holm, M (1989) Focus, 112 is described in detail in U.S. Pat. No. 5,455,265. The specification of U.S. Pat. No. 5,455,265 is hereby expressly incorporated by reference. A holoreceptor transactivation assay and a ligand binding assay which measure the antagonist/agonist like activity of the compounds of the invention, or their ability to bind to the several retinoid receptor subtypes, respectively, are described in published PCT Application No. WO WO93/11755 (particularly on pages 30-33 and 37-41) published on Jun. 24, 1993, the specification of which is also incorporated herein by reference. A detailed experimental procedure for holoreceptor transactivations has been described by Heyman et al. Cell 68, 397-406, (1992); Allegretto et al. J. Biol. Chem. 268, 26625-26633, and Mangelsdorf et al. The Retinoids: Biology, Chemistry and Medicine, pp 319-349, Raven Press Ltd., New York, which are expressly incorporated herein by reference. The results obtained in this assay are expressed in EC50 numbers, as they are also in the chimeric receptor transactivation assay. The results of the ligand binding assay are expressed in Ki numbers. (See Cheng et al. Biochemical Pharmacology Vol. 22 pp 3099-3108, expressly incorporated herein by reference.)
(§2) Generally speaking, in the tables disclosing the results of transactivation and binding assays the numbers in parentheses indicate efficacy as a percentage compared to the standard compound, (2E,4E,1′S,2′S)-3-methyl-5-[2′-methyl-2′-(5,5,8,8-tetramethyl-5,6,7,8-tetrahydro-naphthalen-2-yl)cyclopropyl]-penta-2,4-dienoic acid and the other numbers indicate the measured EC50 and K; in nanomolar concentration.

Test [2] has as its target T1, RXRα. The test can be described thus: holoreceptor transactivation assay, RXRα. Conditions: for EC50: holoreceptor transactivation, read-out: RXR Trans. EC50 α; for Emax: percentage compared to the standard compound, read-out: RXR Trans. efficacy (number in parentheses) α. It is filed as cell-based.
From the text: as §1
(§3) Efficacy in a transactivation assay is expressed as a percentage of the maximum potency attained by the compound compared to a standard which, in this case, is the compound named (2E,4E,1′S,2′S)-3-methyl-5-[2′-methyl-2′-(5,5,8,8-tetramethyl-5,6,7,8-tetrahydro-naphthalen-2-yl)-cyclopropyl]-penta-2,4-dienoic acid. This standard compound is described in U.S. Pat. No. 6,114,533.
(§4) The specification of this application for patent is organized in several sections in accordance with structural Formulas A through F each of which discloses a group of preferred compounds within the scope of the invention. Tables that disclose the activity of certain exemplary compounds of the invention in the above-described RXR receptor transactivation and binding assays are found in the corresponding sections. […] The transactivation data pertaining to the activation of RXR receptors were obtained in the holoreceptor assay.
as §2

The target in test [3] is T2, RARβ (Homo sapiens, UniProt P10826).
T2 sequence (P10826 1-455): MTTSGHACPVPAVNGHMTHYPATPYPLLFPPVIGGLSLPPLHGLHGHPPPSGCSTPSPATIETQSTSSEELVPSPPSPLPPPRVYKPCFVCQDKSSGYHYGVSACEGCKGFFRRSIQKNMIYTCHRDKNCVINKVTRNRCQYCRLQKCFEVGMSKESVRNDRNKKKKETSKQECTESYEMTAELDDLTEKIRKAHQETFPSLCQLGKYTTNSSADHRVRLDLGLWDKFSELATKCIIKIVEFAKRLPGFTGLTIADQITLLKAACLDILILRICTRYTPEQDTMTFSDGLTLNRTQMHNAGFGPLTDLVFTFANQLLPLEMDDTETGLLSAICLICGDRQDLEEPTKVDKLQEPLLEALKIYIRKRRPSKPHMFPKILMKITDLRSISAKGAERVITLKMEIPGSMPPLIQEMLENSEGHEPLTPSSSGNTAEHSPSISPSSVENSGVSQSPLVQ
Nature of the test: ligand binding assay, RARβ. Particulars: for Ki: read-out: RAR Bind. Ki β.
From the text: as §1, §2

The target in test [4] is T3, RXRβ (UniProt P28704).
T3 sequence (P28704 1-520): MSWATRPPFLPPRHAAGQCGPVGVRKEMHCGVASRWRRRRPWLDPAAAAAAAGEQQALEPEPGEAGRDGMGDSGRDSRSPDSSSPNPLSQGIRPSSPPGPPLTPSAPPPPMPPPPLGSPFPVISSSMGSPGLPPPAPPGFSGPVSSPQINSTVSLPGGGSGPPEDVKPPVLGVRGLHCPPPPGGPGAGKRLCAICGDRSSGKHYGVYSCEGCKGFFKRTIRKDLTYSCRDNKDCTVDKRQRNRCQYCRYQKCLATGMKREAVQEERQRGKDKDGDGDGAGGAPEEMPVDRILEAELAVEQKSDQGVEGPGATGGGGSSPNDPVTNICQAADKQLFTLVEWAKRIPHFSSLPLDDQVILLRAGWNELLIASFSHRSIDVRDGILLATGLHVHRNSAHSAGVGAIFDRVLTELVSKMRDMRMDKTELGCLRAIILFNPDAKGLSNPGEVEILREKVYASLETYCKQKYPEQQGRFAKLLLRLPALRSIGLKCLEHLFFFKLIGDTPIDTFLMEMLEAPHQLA
The test can be described thus: holoreceptor transactivation assay, RXRβ. The test is classed as cell-based. Particulars: for EC50: holoreceptor transactivation, read-out: RXR Trans. EC50 β; for RXR Trans. efficacy (number in parentheses) β: percentage compared to the standard compound.
From the text: as §1, §3, §4, §2

A word on the Ki: it is the equilibrium dissociation constant of an inhibitor or competing ligand from its target. For orientation: EC50 means the concentration needed to bring the measured effect to its halfway point. On to `CCOc1cc2c(cc1\C(CC)=C(F)/C=C/C(C)=C/C(=O)O)C(C(C)(C)C)=CCC2(C)C` [Compound A-83, (2E,4E,6E)-7-(8-tert-Butyl-3-ethoxy-5,5-dimethyl-5,6-dihydronaphthalen-2-yl)-6-fluoro-3-methyl-nona-2,4,6-trienoic acid], for which the inhibitory constant (Ki) in test [1] came to 0.002 µM. Besides, in test [2], the EC50 was 0.002 µM and the Emax is 13%. Besides, in test [3], the Ki was 0.261 µM. For the same compound, in test [4], the EC50 worked out at 0.007 µM and the “RXR Trans. efficacy (number in parentheses) β” value (“RXR Trans. efficacy” for short) came out at 17%.

Take `CCOc1cc2c(cc1\C(=C/C=C/C(C)=C/C(=O)O)CC)C(C)=CCC2(C)C` [Compound A-16, 7-(3-Ethoxy-5,5,8-trimethyl-5,6-dihydronaphthalen-2-yl)-3-methyl-nona-2E,4E,6Z-trienoic acid]: in test [1], the Ki was 0.0087 µM. In test [2], the EC50 is 0.012 µM and the Emax is 39%. Also, the inhibition constant Ki in test [3] was determined as 0.61 µM. Further, in test [4], the EC50 was found to be 0.191 µM and the “RXR Trans. efficacy” value is reported as 37%.

For `CCOc1cc2c(cc1\C(C)=C(F)/C=C/C(C)=C/C(=O)O)C(C(C)C)=CCC2(C)C` [Compound A-79, (2E,4E,6E)-6-Fluoro-3-(4,4-dimethylethoxy-1-isopropyl-3,4-dihydronaphthalen-7-yl)-3-methyl-2.4,6-octa-trienoic acid], in test [1], the Ki came to 0.002 µM. In test [2], the EC50 was determined as 0.001 µM and the Emax came to 62%. In test [4], the EC50 amounted to 0.004 µM and the “RXR Trans. efficacy” value is reported as 60%.

On to `CCCOc1cc2c(cc1\C(C)=C(F)/C=C/C(C)=C/C(=O)O)C(C(C)(C)C)=CCC2(C)C` [Compound A-84, (2E,4E,6E)-6-Fluoro-3-(4,$dimethyl-6-n-propoxy-1-tert-butyl-3,4-dihydronaphthalen-7-yl)-3-methyl-2,4,6-octatrienoic acid], for which the figures for the Ki in test [1] and in test [3] were 0.013 µM and 0.62 µM, respectively.

Consider `CC(/C=C/C(F)=C(/C)c1cc2c(cc1OCC1CC1)C(C)(C)CC=C2C(C)C)=C\C(=O)O` [Compound A-81, (2E,4E,6E)-6-Fluoro-3-(4-dimethyl-6-(cyclopropyl)methoxy-1-isopropyl-3,4-dihydronaphthalen-7-yl)-3-methyl-2,4.6-octa-trienoic acid], for which the inhibition constant Ki in test [1] is 0.012 µM; in test [3] it was 0.927 µM.

For the compound `CCOc1cc2c(cc1\C(C)=C(F)/C=C/C(C)=C/C(=O)O)C(CC)=CC(C)(C)O2` [Compound 123, 7-(7-Ethoxy-4-ethyl-2,2-dimethyl-2H-chromen-6-yl)-6-fluoro-3-methyl-octa-2E,4E,6E-trienoic acid], the results for the inhibition constant Ki in test [1] and in test [3] were 0.833 µM and above 10 µM, respectively. In addition, in test [2], the EC50 is above 10 µM.

In the case of `CCOc1cc2c(cc1\C(C)=C(F)/C=C/C(C)=C/C(=O)O)C(c1ccccc1)=CC(C)(C)O2` [Compound 127, (2E,4E,6E)-7-(7-Ethoxy-2,2-dimethyl-4-phenyl-2H-chromen-6-yl)-6-fluoro-3-methyl-octa-2,4,6-trienoic acid], the Ki in test [1] was 0.097 µM; in test [3], 1.4 µM.

`CCCOc1cc2c(cc1\C(C)=C(F)/C=C/C(C)=C/C(=O)O)C(C(C)C)=CCC2(C)C` [Compound A-80]: the values for the Ki in test [1] and in test [3] were 0.01 µM and 0.552 µM, respectively.

Turning to `CCCOc1cc2c(cc1\C(C)=C(F)/C=C/C(C)=C/C(=O)O)C(c1ccccc1)=CC(C)(C)O2` [Compound 128, (2E,4E,6E)-7-(2,2-Dimethyl-4-phenyl-7-propoxy-2H-chromen-6-yl)-6-fluoro-3-methyl-octa-2,4,6-trienoic acid], the Ki in test [1] was 0.053 µM; in test [3], 0.388 µM.

For orientation: Kd means the free concentration of one partner at which half of the binding sites on the other are occupied at equilibrium, for simple one-to-one binding. Turning to `CCOc1c(\C(CC)=C(F)/C=C/C(C)=C/C(=O)O)cc2c(c1Br)C(C)(C)CC=C2C(C)CC` (centres unmarked) [Compound A-176, (2E,4E,6E)-7-(4-Bromo-8-sec-butyl-3-ethoxy-5,5-methyl-5,6-dihydro-naphthalen-2-yl)-6-fluoro-3-methyl-nona-2,4,6-trienoic acid], in test [2], the EC50 came to 0.0009 µM and the Emax amounted to 58%. In test [3] (Table 9 (Formula F), read-out: RAR β Kd), the Kd came to 0.112 µM. Also, in test [4], the half-maximal effective concentration (EC50) was determined as 0.004 µM and the “RXR Trans. efficacy” value is given as 58%.
